ChEMBL document CHEMBL4130587, “Chemical Compounds as Inhibitors of Kinase Activity for the Treatment of Cancer and COPD” (ACS Med Chem Lett, 2017)

Legend:
[1] = biological target: T1, Phosphatidylinositol 4,5-bisphosphate 3-kinase catalytic subunit delta isoform (Homo sapiens, UniProt O00329); test: Inhibition of GST-tagged PI3Kdelta […] (unknown origin) using PIP2 as subtrate after 1 hr in presence of biotin-labeled PIP3 by TR-FRET assay
T1 sequence (O00329 whole entry): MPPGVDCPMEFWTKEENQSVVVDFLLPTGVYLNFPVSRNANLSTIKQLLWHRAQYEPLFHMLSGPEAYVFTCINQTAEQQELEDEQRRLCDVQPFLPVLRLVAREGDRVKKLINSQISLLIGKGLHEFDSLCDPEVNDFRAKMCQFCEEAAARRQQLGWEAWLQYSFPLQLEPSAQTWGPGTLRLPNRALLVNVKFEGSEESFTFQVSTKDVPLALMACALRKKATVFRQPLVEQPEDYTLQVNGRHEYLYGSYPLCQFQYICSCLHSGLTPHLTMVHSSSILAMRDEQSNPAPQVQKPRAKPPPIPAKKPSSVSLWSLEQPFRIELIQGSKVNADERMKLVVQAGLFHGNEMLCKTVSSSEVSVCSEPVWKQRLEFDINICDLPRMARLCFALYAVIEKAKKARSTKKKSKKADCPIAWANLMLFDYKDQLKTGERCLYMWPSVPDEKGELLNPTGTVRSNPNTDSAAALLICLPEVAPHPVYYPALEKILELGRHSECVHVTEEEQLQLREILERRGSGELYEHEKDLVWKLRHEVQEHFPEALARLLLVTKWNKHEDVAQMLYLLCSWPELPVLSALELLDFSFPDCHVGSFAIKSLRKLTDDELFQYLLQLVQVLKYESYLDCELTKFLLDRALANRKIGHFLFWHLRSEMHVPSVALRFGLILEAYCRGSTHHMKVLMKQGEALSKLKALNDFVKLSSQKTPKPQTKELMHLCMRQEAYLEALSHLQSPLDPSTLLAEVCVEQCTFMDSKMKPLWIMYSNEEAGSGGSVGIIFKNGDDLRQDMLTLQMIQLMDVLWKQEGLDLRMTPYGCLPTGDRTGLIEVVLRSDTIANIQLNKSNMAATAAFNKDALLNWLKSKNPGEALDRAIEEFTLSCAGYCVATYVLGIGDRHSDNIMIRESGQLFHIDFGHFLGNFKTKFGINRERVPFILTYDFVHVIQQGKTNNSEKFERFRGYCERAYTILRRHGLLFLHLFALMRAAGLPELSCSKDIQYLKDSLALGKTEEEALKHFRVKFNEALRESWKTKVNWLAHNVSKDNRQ

[2] = biological target: Phosphatidylinositol 4,5-bisphosphate 3-kinase catalytic subunit beta isoform (Homo sapiens, UniProt P42338); test: Inhibition of GST-tagged PI3Kbeta […] (unknown origin) using PIP2 as subtrate after 1 hr in presence of biotin-labeled PIP3 by TR-FRET assay
[3] = biological target: Phosphatidylinositol 4,5-bisphosphate 3-kinase catalytic subunit alpha isoform (Homo sapiens, UniProt P42336); test: Inhibition of GST-tagged PI3Kalpha […] (unknown origin) using PIP2 as subtrate after 1 hr in presence of biotin-labeled PIP3 by TR-FRET assay
[4] = biological target: Phosphatidylinositol 4,5-bisphosphate 3-kinase catalytic subunit gamma isoform (Homo sapiens, UniProt P48736); test: Inhibition of GST-tagged PI3Kgamma […] (unknown origin) using PIP2 as subtrate after 1 hr in presence of biotin-labeled PIP3 by TR-FRET assay
Chain of Phosphatidylinositol 4,5-bisphosphate 3-kinase catalytic subunit gamma isoform (P48736 whole entry, canonical isoform): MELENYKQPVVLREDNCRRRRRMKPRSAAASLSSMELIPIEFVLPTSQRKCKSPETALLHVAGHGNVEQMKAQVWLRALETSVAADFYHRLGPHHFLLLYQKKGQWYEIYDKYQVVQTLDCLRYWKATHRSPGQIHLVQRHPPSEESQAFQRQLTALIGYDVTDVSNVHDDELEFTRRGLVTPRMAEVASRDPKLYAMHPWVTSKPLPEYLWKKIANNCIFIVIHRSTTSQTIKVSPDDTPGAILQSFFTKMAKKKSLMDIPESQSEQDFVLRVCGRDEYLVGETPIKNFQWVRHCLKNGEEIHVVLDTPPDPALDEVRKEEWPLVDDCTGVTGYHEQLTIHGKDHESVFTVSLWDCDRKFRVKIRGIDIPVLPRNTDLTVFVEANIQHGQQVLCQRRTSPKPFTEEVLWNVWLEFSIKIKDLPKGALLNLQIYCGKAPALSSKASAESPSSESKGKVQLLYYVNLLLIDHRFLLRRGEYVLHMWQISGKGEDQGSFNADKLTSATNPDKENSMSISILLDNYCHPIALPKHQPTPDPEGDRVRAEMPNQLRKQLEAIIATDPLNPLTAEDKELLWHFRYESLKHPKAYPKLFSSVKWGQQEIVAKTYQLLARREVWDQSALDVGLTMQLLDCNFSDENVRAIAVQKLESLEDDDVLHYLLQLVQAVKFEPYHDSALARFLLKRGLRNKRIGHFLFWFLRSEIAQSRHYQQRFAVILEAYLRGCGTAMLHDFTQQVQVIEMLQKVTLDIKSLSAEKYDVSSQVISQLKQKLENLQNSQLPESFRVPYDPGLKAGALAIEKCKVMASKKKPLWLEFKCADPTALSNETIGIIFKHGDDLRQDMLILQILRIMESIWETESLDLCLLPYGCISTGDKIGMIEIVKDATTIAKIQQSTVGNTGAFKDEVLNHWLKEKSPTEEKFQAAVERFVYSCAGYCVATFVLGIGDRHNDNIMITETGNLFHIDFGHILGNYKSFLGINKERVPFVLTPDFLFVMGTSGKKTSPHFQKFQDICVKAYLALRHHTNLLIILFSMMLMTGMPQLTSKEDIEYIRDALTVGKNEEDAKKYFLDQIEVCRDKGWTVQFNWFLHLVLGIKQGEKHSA

Chain of Phosphatidylinositol 4,5-bisphosphate 3-kinase catalytic subunit alpha isoform (P42336 whole entry, canonical isoform): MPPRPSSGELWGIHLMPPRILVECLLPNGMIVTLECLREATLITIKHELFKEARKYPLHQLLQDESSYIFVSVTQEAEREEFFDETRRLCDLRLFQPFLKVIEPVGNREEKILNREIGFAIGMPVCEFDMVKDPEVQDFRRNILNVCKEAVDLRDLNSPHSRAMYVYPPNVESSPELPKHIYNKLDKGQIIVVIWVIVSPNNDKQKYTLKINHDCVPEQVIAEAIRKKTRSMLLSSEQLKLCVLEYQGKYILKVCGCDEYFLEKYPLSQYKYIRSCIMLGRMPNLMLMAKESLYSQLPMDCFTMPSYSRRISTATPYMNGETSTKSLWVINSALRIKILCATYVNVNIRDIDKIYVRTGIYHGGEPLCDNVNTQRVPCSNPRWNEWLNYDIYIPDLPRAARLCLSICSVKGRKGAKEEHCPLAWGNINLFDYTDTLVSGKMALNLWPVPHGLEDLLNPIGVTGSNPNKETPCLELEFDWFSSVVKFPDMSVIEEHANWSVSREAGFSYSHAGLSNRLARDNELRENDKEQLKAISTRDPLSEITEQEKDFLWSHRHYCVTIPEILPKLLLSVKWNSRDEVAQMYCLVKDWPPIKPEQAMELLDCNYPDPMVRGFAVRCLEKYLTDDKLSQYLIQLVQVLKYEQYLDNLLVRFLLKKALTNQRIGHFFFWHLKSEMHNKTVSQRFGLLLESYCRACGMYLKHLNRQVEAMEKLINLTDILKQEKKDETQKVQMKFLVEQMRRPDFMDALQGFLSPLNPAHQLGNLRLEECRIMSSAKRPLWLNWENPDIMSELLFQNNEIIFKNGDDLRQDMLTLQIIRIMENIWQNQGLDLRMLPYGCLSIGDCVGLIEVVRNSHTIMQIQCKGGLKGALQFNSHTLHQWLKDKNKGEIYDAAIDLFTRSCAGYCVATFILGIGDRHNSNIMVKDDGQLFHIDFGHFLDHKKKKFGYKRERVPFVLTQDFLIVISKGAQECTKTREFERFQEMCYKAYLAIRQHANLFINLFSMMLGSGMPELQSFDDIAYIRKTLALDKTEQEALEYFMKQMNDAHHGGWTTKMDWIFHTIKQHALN
Chain of Phosphatidylinositol 4,5-bisphosphate 3-kinase catalytic subunit beta isoform (P42338 whole entry, canonical isoform): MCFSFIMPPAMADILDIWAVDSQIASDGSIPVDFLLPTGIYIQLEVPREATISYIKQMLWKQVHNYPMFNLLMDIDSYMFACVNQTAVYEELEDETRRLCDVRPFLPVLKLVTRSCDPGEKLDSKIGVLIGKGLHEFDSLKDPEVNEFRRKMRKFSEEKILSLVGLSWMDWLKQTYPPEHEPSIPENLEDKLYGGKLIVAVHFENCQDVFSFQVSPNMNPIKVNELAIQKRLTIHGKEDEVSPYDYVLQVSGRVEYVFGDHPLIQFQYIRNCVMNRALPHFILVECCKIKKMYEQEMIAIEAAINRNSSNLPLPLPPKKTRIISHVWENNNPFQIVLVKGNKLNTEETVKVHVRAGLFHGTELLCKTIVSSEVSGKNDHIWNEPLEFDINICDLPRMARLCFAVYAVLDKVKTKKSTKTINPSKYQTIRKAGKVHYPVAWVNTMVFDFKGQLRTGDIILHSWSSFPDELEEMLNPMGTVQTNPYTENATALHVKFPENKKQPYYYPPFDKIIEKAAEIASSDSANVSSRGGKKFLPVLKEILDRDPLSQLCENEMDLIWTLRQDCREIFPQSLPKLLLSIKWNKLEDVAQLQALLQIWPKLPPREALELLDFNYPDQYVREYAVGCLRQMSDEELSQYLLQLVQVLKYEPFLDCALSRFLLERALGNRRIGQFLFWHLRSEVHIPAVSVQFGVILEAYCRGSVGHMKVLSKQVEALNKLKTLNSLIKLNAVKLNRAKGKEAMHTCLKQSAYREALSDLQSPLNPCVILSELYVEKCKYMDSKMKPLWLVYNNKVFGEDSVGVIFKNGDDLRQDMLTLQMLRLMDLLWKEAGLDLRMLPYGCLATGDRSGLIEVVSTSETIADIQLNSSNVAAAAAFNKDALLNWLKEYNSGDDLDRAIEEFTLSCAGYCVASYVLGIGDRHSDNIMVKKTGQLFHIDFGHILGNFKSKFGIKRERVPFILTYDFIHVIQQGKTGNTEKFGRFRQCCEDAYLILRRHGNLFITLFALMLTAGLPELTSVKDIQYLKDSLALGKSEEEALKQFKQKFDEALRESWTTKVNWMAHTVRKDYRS

SMILES | IC50 [1] [µM] | IC50 [2] [µM] | IC50 [3] [µM] | IC50 [4] [µM]
COc1ncc(N2CCOCC2)cc1S(=O)(=O)Nc1ccnc(-c2ccc(CN3CCN(C4COC4)CC3)cc2)c1 | ≤ 10 | ≤ 10 | ≤ 10 | ≤ 10
CC(C)N1CCN(Cc2ccc(-c3cc(NS(=O)(=O)c4cc(N5CCOCC5)cnc4N(C)C)ccn3)c(F)c2)CC1 | ≤ 10 | ≤ 10 | ≤ 10 | ≤ 10
CCC(C)N1CCN(Cc2ccc(-c3cc(NS(=O)(=O)c4cc(N5CCOCC5)cnc4OC)ccn3)cc2)CC1 (stereo not drawn) | ≤ 10 | ≤ 10 | ≤ 10 | ≤ 10
CCOC(=O)CN(c1ccnc(-c2ccc(CN3CCN(C(C)C)CC3)cc2F)c1)S(=O)(=O)c1cc(N2CCOCC2)cnc1OC | ≤ 10 | ≤ 10 | ≤ 10 | ≤ 10
CCOc1ncc(N2CCOCC2)cc1S(=O)(=O)Nc1ccnc(-c2ccc(CN3C[C@@H](C)O[C@@H](C)C3)cc2F)c1 | ≤ 10 | ≤ 10 | ≤ 10 | ≤ 10
COc1ncc(N2CCOCC2)cc1S(=O)(=O)N(c1ccnc(-c2ccc(CN3CCN(C(C)C)CC3)cc2F)c1)C(C)C | ≤ 10 | ≤ 10 | ≤ 10 | ≤ 10
COc1ncc(N2CCOCC2)cc1S(=O)(=O)Nc1ccnc(-c2ccc(CN3CCCC3)c(F)c2)c1 | ≤ 10 | ≤ 10 | ≤ 10 | ≤ 10
COc1ncc(N2CCOCC2)cc1S(=O)(=O)Nc1ccnc(-c2ccc(CN3CCN(C(C)(C)C)CC3)cc2)c1 | ≤ 10 | ≤ 10 | ≤ 10 | ≤ 10
COc1ncc(N2CCOCC2)cc1S(=O)(=O)Nc1ccnc(-c2ccc(CN3C[C@@H](C)O[C@@H](C)C3)cc2)c1 | ≤ 10 | ≤ 10 | ≤ 10 | ≤ 10
CN(C)c1ncc(N2CCOCC2)cc1S(=O)(=O)Nc1ccnc(-c2ccc(CN3CCN(C(C)(C)C)CC3)cc2F)c1 | ≤ 10 | ≤ 10 | ≤ 10 | ≤ 10
COc1ncc(N2CCOCC2)cc1S(=O)(=O)Nc1ccnc(-c2cc(Cl)c(CN3CCN(C(C)C)CC3)cc2F)c1 | ≤ 10 | ≤ 10 | ≤ 10 | ≤ 10
CCN(c1ccnc(-c2ccc(CN3CCN(C(C)C)CC3)cc2F)c1)S(=O)(=O)c1cc(N2CCOCC2)cnc1OC | ≤ 10 | ≤ 10 | ≤ 10 | ≤ 10
COc1ncc(N2CCOCC2)cc1S(=O)(=O)Nc1ccnc(-c2c(F)cc(CN3CCN(C(C)C)CC3)cc2F)c1 | ≤ 10 | ≤ 10 | ≤ 10 | ≤ 10
COc1ncc(N2CCOCC2)cc1S(=O)(=O)Nc1ccnc(-c2ccc(CN3CCN(C(C)C)CC3)cc2)c1 | ≤ 10 | ≤ 10 | ≤ 10 | ≤ 10
COc1ncc(N2CCOCC2)cc1S(=O)(=O)Nc1ccnc(-c2ccc(CN3CCN(C(C)C)CC3)c(F)c2F)c1 | ≤ 10 | ≤ 10 | ≤ 10 | ≤ 10
CCCN(c1ccnc(-c2ccc(CN3CCN(C(C)C)CC3)cc2F)c1)S(=O)(=O)c1cc(N2CCOCC2)cnc1OC | ≤ 10 | ≤ 10 | ≤ 10 | ≤ 10
COc1ncc(N2CCOCC2)cc1S(=O)(=O)Nc1ccnc(-c2ccc(CN3CCN(C(C)C)CC3)c(F)c2)c1 | ≤ 10 | ≤ 10 | ≤ 10 | ≤ 10
COc1ncc(N2CCOCC2)cc1S(=O)(=O)Nc1ccnc(-c2ccc(CN3CCOCC3)cc2)c1 | ≤ 10 | ≤ 10 | ≤ 10 | ≤ 10
COc1ncc(N2CCOCC2)cc1S(=O)(=O)Nc1ccnc(-c2cc(F)c(CN3CCN(C(C)C)CC3)cc2F)c1 | ≤ 10 | ≤ 10 | ≤ 10 | ≤ 10
COc1ncc(N2CCOCC2)cc1S(=O)(=O)N(COC(=O)C(C)(C)C)c1ccnc(-c2ccc(CN3CCN(C(C)C)CC3)cc2F)c1 | ≤ 10 | ≤ 10 | ≤ 10 | ≤ 10
COc1ncc(N2CCOCC2)cc1S(=O)(=O)Nc1ccnc(-c2cc(F)c(CN3CCN(C(C)C)CC3)c(F)c2)c1 | ≤ 10 | ≤ 10 | ≤ 10 | ≤ 10
COc1ncc(N2CCOCC2)cc1S(=O)(=O)N(C)c1ccnc(-c2ccc(CN3CCN(C(C)C)CC3)cc2F)c1 | ≤ 10 | ≤ 10 | ≤ 10 | ≤ 10
COc1ncc(N2CCOCC2)cc1S(=O)(=O)N(C)c1ccnc(-c2ccc(CN3CCN(C(C)(C)C)CC3)cc2F)c1 | ≤ 10 | ≤ 10 | ≤ 10 | ≤ 10
COc1ncc(N2CCOCC2)cc1S(=O)(=O)Nc1ccnc(-c2ccc(CN3CCN(C4CCC4)CC3)cc2)c1 | ≤ 10 | ≤ 10 | ≤ 10 | ≤ 10
COc1ncc(N2CCOCC2)cc1S(=O)(=O)Nc1ccnc(-c2ccc(CN(C)C)cc2)c1 | ≤ 10 | ≤ 10 | ≤ 10 | ≤ 10

The remaining lines, values ahead:

IC50 [1] [µM] | IC50 [2] [µM] | IC50 [3] [µM] | IC50 [4] [µM] | SMILES
≤ 10 | ≤ 10 | ≤ 10 | ≤ 10 | COc1ncc(N2CCOCC2)cc1S(=O)(=O)Nc1ccnc(-c2ccc(CN3CCN(C4CCC4)CC3)cc2F)c1
≤ 10 | ≤ 10 | ≤ 10 | ≤ 10 | COCCN1CCN(Cc2ccc(-c3cc(NS(=O)(=O)c4cc(N5CCOCC5)cnc4OC)ccn3)c(F)c2)CC1
≤ 10 | ≤ 10 | ≤ 10 | ≤ 10 | COc1ncc(N2CCOCC2)cc1S(=O)(=O)Nc1ccnc(-c2ccc(CN3CCC(C)C3)cc2F)c1 (stereo not drawn)
≤ 10 | ≤ 10 | ≤ 10 | ≤ 10 | COc1ncc(N2CCOCC2)cc1S(=O)(=O)Nc1ccnc(-c2ccc(CN3CCCCC3)cc2F)c1
≤ 10 | ≤ 10 | ≤ 10 | ≤ 10 | COc1ncc(N2CCOCC2)cc1S(=O)(=O)Nc1ccnc(-c2ccc(CN3CCN(C(C)C)CC3)cc2F)c1
≤ 10 | ≤ 10 | ≤ 10 | ≤ 10 | COc1ncc(N2CCOCC2)cc1S(=O)(=O)Nc1ccnc(-c2ccc(CN3CCNCC3)cc2F)c1
≤ 10 | ≤ 10 | ≤ 10 | ≤ 10 | COc1ncc(N2CCOCC2)cc1S(=O)(=O)Nc1ccnc(-c2ccc(CN3CCN(C4COC4)CC3)cc2F)c1
≤ 10 | ≤ 10 | ≤ 10 | ≤ 10 | COc1ncc(N2CCOCC2)cc1S(=O)(=O)Nc1ccnc(-c2ccc(CN3CCCC3C)cc2F)c1 (stereo not drawn)
≤ 10 | ≤ 10 | ≤ 10 | ≤ 10 | COc1ncc(N2CCOCC2)cc1S(=O)(=O)Nc1ccnc(-c2ccc(CN3CCCC3)cc2F)c1
≤ 10 | ≤ 10 | ≤ 10 | ≤ 10 | COc1ncc(N2CCOCC2)cc1S(=O)(=O)Nc1ccnc(-c2ccc(CN3CCC(C(C)(C)O)CC3)cc2F)c1
≤ 10 | ≤ 10 | ≤ 10 | ≤ 10 | COc1ncc(N2CCOCC2)cc1S(=O)(=O)Nc1ccnc(-c2ccc(CN3CCN(C(C)(C)C)CC3)cc2F)c1
≤ 10 | ≤ 10 | ≤ 10 | ≤ 10 | COc1ncc(N2CCOCC2)cc1S(=O)(=O)Nc1ccnc(-c2ccc(CN3C[C@@H](C)O[C@@H](C)C3)cc2F)c1
